In paper PMC4858212, “Production of the Ramoplanin Activity Analogue by Double Gene Inactivation” (PLoS ONE, 2016):
≈ marks a conversion by molar mass, not a printed value. Where two headings read alike, the source gives them in different places. Numbered stars: 1 amine (or outer) side, 2 acyl side, 3 side chain; on linkers, the order of the positions; unused ones are H or OH. Bridge positions count the residues as written; N and C are the ends. Square brackets hold non-standard residues; d marks the D form. Peptide text beside a SMILES is read from it. * marks the point of attachment. Hpg(αMan(1-2)αMan) = N[C@H](C(=O)O)c1ccc(O[C@H]2O[C@H](CO)[C@@H](O)[C@H](O)[C@@H]2O[C@H]2O[C@H](CO)[C@@H](O)[C@H](O)[C@@H]2O)cc1; Octa(2Z,4E)dienoyl(7-Me) = CC(C)C/C=C/C=C\C(=O)*; X1 = NC(=O)[C@@H](O[*:3])[C@H](N[*:1])C(=O)[*:2]; Hpg(3-Cl) = N[C@H](C(=O)O)c1ccc(O)c(Cl)c1; d(aThr) = C[C@@H](O)[C@@H](N)C(=O)O; dHpg = N[C@@H](C(=O)O)c1ccc(O)cc1; Hpg = N[C@H](C(=O)O)c1ccc(O)cc1; aThr = C[C@H](O)[C@H](N)C(=O)O; dOrn = NCCC[C@@H](N)C(=O)O

What was measured:
[1] = tested on: Enterococcus faecalis ATCC29212
Description: (§1) The activies of ramoplanin and its analogs against MRSA and VRE were determined using a liquid microdilution method. MIC values were detected according to the CLSI guidelines. ATCC 25923 (methicillin-sensitive Staphylococcus aureus, MSSA), ATCC 43300 (methicillin-resistant Staphylococcus aureus, MRSA), ATCC 29212 (Enterococcus faecalis) and ATCC 51299 (vancomycin-resistant Enterococcus faecalis, VRE) were employed in this study. Ramoplanin and its analogs were dissolved in 30% methyl alcohol, which was also used as the negative control during the serial tests.
(§2) Antibacterial activities of purified deschlororamoplanin A2 aglycone were compared with ramoplanin A2 and ramoplanin A2 aglycone. The MICs of ramoplanin A2, ramoplanin A2 aglycone and deschlororamoplanin A2 aglycone against ATCC 25923 (methicillin-sensitive Staphylococcus aureus, MSSA), ATCC 43300 (methicillin-resistant Staphylococcus aureus, MRSA), ATCC 29212 (Enterococcus faecalis) and ATCC 51299 (vancomycin-resistant Enterococcus faecalis, VRE) were determined.

[2] = tested on: Enterococcus faecalis ATCC51299
Description: as §1, §2

[3] = tested on: Staphylococcus aureus ATCC43300
Description: as §1, §2

[4] = tested on: Staphylococcus aureus ATCC25923
Description: as §1, §2

Molecule | MIC ([1]; ATCC29212) [µg/mL] | MIC ([2]; ATCC51299) [µg/mL] | MIC ([3]; ATCC43300) [µg/mL] | MIC ([4]; ATCC25923) [µg/mL] | MIC ([1]; Enterococcus faecalis ATCC29212, liquid microdilution, CLSI guidelines, compounds dissolved in 30% methyl alcohol) [µg/mL] | MIC ([2]; Enterococcus faecalis ATCC51299 (vancomycin-resistant, VRE), liquid microdilution, CLSI guidelines, compounds dissolved in 30% methyl alcohol) [µg/mL] | MIC ([3]; Staphylococcus aureus ATCC43300 (methicillin-resistant, MRSA), liquid microdilution, CLSI guidelines, compounds dissolved in 30% methyl alcohol) [µg/mL] | MIC ([4]; Staphylococcus aureus ATCC25923 (methicillin-sensitive, MSSA), liquid microdilution, CLSI guidelines, compounds dissolved in 30% methyl alcohol) [µg/mL]
CC(C)C/C=C/C=C\C(=O)N[C@@H](CC(N)=O)C(=O)N[C@@H]1C(=O)N[C@H](c2ccc(O)cc2)C(=O)N[C@H](CCCN)C(=O)N[C@H]([C@@H](C)O)C(=O)N[C@@H](c2ccc(O)cc2)C(=O)N[C@H](c2ccc(O)cc2)C(=O)N[C@@H]([C@H](C)O)C(=O)N[C@@H](Cc2ccccc2)C(=O)N[C@H](CCCN)C(=O)N[C@@H](c2ccc(O)cc2)C(=O)N[C@H]([C@@H](C)O)C(=O)N[C@@H](c2ccc(O)cc2)C(=O)NCC(=O)N[C@@H](CC(C)C)C(=O)N[C@H](C)C(=O)N[C@@H](c2ccc(O)c(Cl)c2)C(=O)O[C@@H]1C(N)=O [Ramoplanin A2 aglycone] ({Octa(2Z,4E)dienoyl(7-Me)}-N[X1][dHpg][dOrn][d(aThr)][Hpg][dHpg][aThr]F[dOrn][Hpg][d(aThr)][Hpg]GL[dA][Hpg(3-Cl)]; ester 2-C) | 0.5 (≈ 0.224 µM) | 1 (≈ 0.448 µM) | 2 (≈ 0.897 µM) | 2 (≈ 0.897 µM) |  |  |  | 
CC(C)C/C=C/C=C\C(=O)N[C@@H](CC(N)=O)C(=O)N[C@@H]1C(=O)N[C@H](c2ccc(O)cc2)C(=O)N[C@H](CCCN)C(=O)N[C@H]([C@@H](C)O)C(=O)N[C@@H](c2ccc(O)cc2)C(=O)N[C@H](c2ccc(O)cc2)C(=O)N[C@@H]([C@H](C)O)C(=O)N[C@@H](Cc2ccccc2)C(=O)N[C@H](CCCN)C(=O)N[C@@H](c2ccc(O[C@H]3O[C@H](CO)[C@@H](O)[C@H](O)[C@@H]3O[C@H]3O[C@H](CO)[C@@H](O)[C@H](O)[C@@H]3O)cc2)C(=O)N[C@H]([C@@H](C)O)C(=O)N[C@@H](c2ccc(O)cc2)C(=O)NCC(=O)N[C@@H](CC(C)C)C(=O)N[C@H](C)C(=O)N[C@@H](c2ccc(O)c(Cl)c2)C(=O)O[C@@H]1C(N)=O [Ramoplanin A2] ({Octa(2Z,4E)dienoyl(7-Me)}-N[X1][dHpg][dOrn][d(aThr)][Hpg][dHpg][aThr]F[dOrn][Hpg(αMan(1-2)αMan)][d(aThr)][Hpg]GL[dA][Hpg(3-Cl)]; ester 2-C) | 1 (≈ 0.392 µM) | 1 (≈ 0.392 µM) | 4 (≈ 1.57 µM) | 2 (≈ 0.783 µM) |  |  |  | 
CC(C)C/C=C/C=C\C(=O)N[C@@H](CC(N)=O)C(=O)N[C@@H]1C(=O)N[C@H](c2ccc(O)cc2)C(=O)N[C@H](CCCN)C(=O)N[C@H]([C@@H](C)O)C(=O)N[C@@H](c2ccc(O)cc2)C(=O)N[C@H](c2ccc(O)cc2)C(=O)N[C@@H]([C@H](C)O)C(=O)N[C@@H](Cc2ccccc2)C(=O)N[C@H](CCCN)C(=O)N[C@@H](c2ccc(O[C@H]3O[C@H](CO)[C@@H](O)[C@H](O)[C@@H]3O[C@H]3O[C@H](CO)[C@@H](O)[C@H](O)[C@@H]3O)cc2)C(=O)N[C@H]([C@@H](C)O)C(=O)N[C@@H](c2ccc(O)cc2)C(=O)NCC(=O)N[C@@H](CC(C)C)C(=O)N[C@H](C)C(=O)N[C@@H](c2ccc(O)cc2)C(=O)O[C@@H]1C(N)=O [Deschlororamoplanin A2] ({Octa(2Z,4E)dienoyl(7-Me)}-N[X1][dHpg][dOrn][d(aThr)][Hpg][dHpg][aThr]F[dOrn][Hpg(αMan(1-2)αMan)][d(aThr)][Hpg]GL[dA][Hpg]; ester 2-C) | 1 (≈ 0.397 µM) | 1 (≈ 0.397 µM) | 2 (≈ 0.794 µM) | 2 (≈ 0.794 µM) |  |  |  | 
CC(C)C/C=C/C=C\C(=O)N[C@@H](CC(N)=O)C(=O)N[C@@H]1C(=O)N[C@H](c2ccc(O)cc2)C(=O)N[C@H](CCCN)C(=O)N[C@H]([C@@H](C)O)C(=O)N[C@@H](c2ccc(O)cc2)C(=O)N[C@H](c2ccc(O)cc2)C(=O)N[C@@H]([C@H](C)O)C(=O)N[C@@H](Cc2ccccc2)C(=O)N[C@H](CCCN)C(=O)N[C@@H](c2ccc(O)cc2)C(=O)N[C@H]([C@@H](C)O)C(=O)N[C@@H](c2ccc(O)cc2)C(=O)NCC(=O)N[C@@H](CC(C)C)C(=O)N[C@H](C)C(=O)N[C@@H](c2ccc(O)cc2)C(=O)O[C@@H]1C(N)=O [Deschlororamoplanin A2 aglycone] ({Octa(2Z,4E)dienoyl(7-Me)}-N[X1][dHpg][dOrn][d(aThr)][Hpg][dHpg][aThr]F[dOrn][Hpg][d(aThr)][Hpg]GL[dA][Hpg]; ester 2-C) | 1 (≈ 0.456 µM) | 1 (≈ 0.456 µM) | 4 (≈ 1.82 µM) | 2 (≈ 0.911 µM) |  |  |  | 
Enduracidin |  |  |  |  | 8 | 8 | 8 | 8
